Consider 24 compounds from PMC9045277, “Quercetin Reduces the Virulence of S. aureus by Targeting ClpP to Protect Mice from MRSA-Induced Lethal Pneumonia” (Microbiology Spectrum, 2022).
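Also: ClpP peptidase activity measured as fluorescence (ex 360 nm, em 465 nm) from cleavage of Suc-LY-AMC substrate at 100 µM, 30 min at 32°C.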

T1 sequence (Q2G036 whole entry): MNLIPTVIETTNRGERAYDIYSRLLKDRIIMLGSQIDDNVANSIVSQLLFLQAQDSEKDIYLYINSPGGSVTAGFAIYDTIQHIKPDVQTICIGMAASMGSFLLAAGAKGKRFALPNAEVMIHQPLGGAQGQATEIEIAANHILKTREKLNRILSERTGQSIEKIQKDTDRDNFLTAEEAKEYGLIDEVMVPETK

This assay addresses T1, ClpP (Staphylococcus aureus, UniProt Q2G036).
T1 construct: pET28a-clpP, purified from E. coli BL21(DE3)
As to the kind of experiment: biochemical. As to conditions: read-out: Relative inhibition rate (%).
Procedure: This property was exploited to screen the available laboratory library of small molecules for ClpP inhibitors. First, 10 μM ClpP and 64 μg/mL of the small molecule compound were added to a black opaque 96-well plate containing 100 μL of ClpP buffer (100 mM HEPES,100 mM NaCl) and incubated for 1 h at room temperature. Afterward, 100 μM Suc-LeuTyr-AMC (Cat number S1153, Sigma-Aldrich, St. Louis, MO, USA) was added to 96-well plates and incubated for 30 min at 32°C. Finally, the fluorescence values were detected by Infinite M200 (360 nm excitation/465 nm emission). […] Since the fluorescent substrate Suc-LY-AMC can be used to detect the activity of ClpP protein, we screened a library of natural products available in our laboratory.
What is called inhibition is the percentage by which the read-out fell short of the control. Consider `C=C1CC[C@@H]2[C@](C)(CO)[C@H](O)CC[C@@]2(C)[C@@H]1C/C=C1/C(=O)OC[C@H]1O` [Andrographolide], for which the inhibition at 64 µg/mL is 15.8 ± 0.72%.
As for `O=c1c(-c2ccc(O)cc2)coc2cc(O[C@@H]3O[C@H](CO)[C@@H](O)[C@H](O)[C@H]3O)cc(O)c12` [Genistin], the figure is 22.1 ± 0.63%; as for `COc1cc(O)c2c(c1)O[C@H](c1ccc(O)cc1)CC2=O` [Sakuranetin], 3.9 ± 1.2%; as for `CCC1=C[C@@H]2CN3CCc4c([nH]c5ccccc45)[C@@](C(=O)OC)(C2)[C@@H]13` [Catharanthine], 10.3 ± 1.62%.
`C/C=C/c1cc(OC)c2c(c1)C(C)C(c1ccc(O)c(OC)c1)O2` (stereo not drawn) [Dehydrodiisoeugenol]: the inhibition at 64 µg/mL is 5.3 ± 0.61%.
Turning to `O=c1c(O[C@@H]2O[C@@H](CO)[C@H](O)[C@H]2O)c(-c2ccc(O)c(O)c2)oc2cc(O)cc(O)c12` [Avicularin], the inhibition at 64 µg/mL turned out to be 46 ± 1.22%.
As for `COc1ccc(-c2cc(=O)c3c(O)c(OC)c(OC)cc3o2)cc1O` [3',5-Dihydroxy-4',6,7-trimethoxyflavone], the figure is 55.8 ± 2.5%.
For `COc1ccc(-c2cc(=O)c3c(O)cc(O[C@@H]4O[C@H](CO[C@@H]5O[C@@H](C)[C@H](O)[C@@H](O)[C@H]5O)[C@@H](O)[C@H](O)[C@H]4O)cc3o2)cc1O` [Diosmin], the inhibition at 64 µg/mL was determined as 31.7 ± 0.92%.
In the case of `Nc1[nH]c(=O)nc2c1ncn2[C@@H]1O[C@H](CO)[C@@H](O)[C@H]1O` [Crotonoside], the inhibition at 64 µg/mL came out at 28.1 ± 3.17%.
On to `Oc1cc2c(cc1O)[C@@H]1c3ccc(O)c(O)c3OC[C@]1(O)C2` [Hematoxylin], for which the inhibition at 64 µg/mL was 23.9 ± 2.69%.
As for `Cc1c(O)c(C)c2c(c1O)C(=O)C[C@@H](c1ccc(O)cc1)O2` [Farrerol], the figure is 33.5 ± 0.73%.
With `CC(=O)OCC1=C[C@@H]2OC(=O)C3=CO[C@@H](O[C@@H]4O[C@H](CO)[C@@H](O)[C@H](O)[C@H]4O)[C@H]1[C@@H]32` [Asperuloside], the inhibition at 64 µg/mL amounted to 17.4 ± 2.31%.
As for `C=CC/C(=N/OS(=O)(=O)O)S[C@@H]1O[C@H](CO)[C@@H](O)[C@H](O)[C@H]1O` [Sinigrin], the figure is 20.1 ± 4.17%; as for `O=C1C[C@@H](c2ccccc2)Oc2cc(O)cc(O)c21` [Pinocembrin], 33.7 ± 0.68%; as for `CC(C)(C)[C@]1(O)C[C@@H]2OC(=O)C[C@@]23C(=O)O[C@@H]2OC(=O)[C@H](O)[C@]213` [Bilobalide], 17.4 ± 1.76%.
For the compound `COc1ccc(/C=C/c2cc(O)cc(O)c2)cc1O` [Rhapontigenin], the inhibition at 64 µg/mL was found to be 42.2 ± 2.89%.
As for `O=c1c(O[C@@H]2O[C@H](CO)[C@@H](O)[C@H](O)[C@H]2O[C@@H]2O[C@H](CO)[C@@H](O)[C@H](O)[C@H]2O)c(-c2ccc(O)c(O)c2)oc2cc(O)cc(O)c12` [Baimaside], the figure is 25.1 ± 0.69%; as for `C[C@@H]1CC[C@@]2(OC1)O[C@H]1C[C@H]3[C@@H]4CC[C@H]5C[C@@H](O)CC[C@]5(C)[C@H]4CC[C@]3(C)[C@H]1[C@@H]2C` [Tigogenin], 12.3 ± 4.21%; as for `O=c1cc(-c2ccccc2)oc2cc(O)cc(O)c12` [Chrysin], 49 ± 3.18%.
`CC(C)=CCc1c(-c2ccc(O)cc2O)oc2c([C@H]3C=C(C)C[C@@H](c4ccc(O)cc4O)[C@@H]3C(=O)c3ccc(O)cc3O)c(O)cc(O)c2c1=O` [kuwanonG]: the inhibition at 64 µg/mL stood at 21.2 ± 2.56%.
As for `O=c1c(-c2ccc(O)cc2)coc2cc(O)cc(O)c12` [Genistein], the figure is 33.5 ± 0.65%; as for `O=C1c2c(O)cc(O)cc2O[C@H](c2ccc(O)c(O)c2)[C@H]1O` [Taxifolin], 17.2 ± 1.2%.
Regarding `COc1ccc(-c2oc3c(CC=C(C)C)c(O[C@@H]4O[C@H](CO)[C@@H](O)[C@H](O)[C@H]4O)cc(O)c3c(=O)c2O[C@@H]2O[C@@H](C)[C@H](O)[C@@H](O)[C@H]2O[C@@H]2OC[C@@H](O)[C@H](O)[C@H]2O)cc1` [Epimedin B], the inhibition at 64 µg/mL came out at 29.1 ± 2.01%.
As for `C[C@@H]1O[C@@H](O[C@H]2C(=O)c3c(O)cc(O)cc3O[C@@H]2c2ccc(O)c(O)c2)[C@H](O)[C@H](O)[C@H]1O` [Astilbin], the figure is 9.1 ± 2.73%.
